This passage reports GFP fluorescence (kMESF), higher = increase results from PubChem BioAssay AID2742 (NMMLSC, 2010).

Calls of active or inactive are those of the source.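 The calls were made as follows: active = fitted half-maximal concentration for changing background-corrected GFP signal at or below a set limit; inactive = the rest.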

A short description of this assay: modulators of MEP2-GFP levels in yeast, dose response, S. cerevisiae, flow cytometry GFP, MLPCN hits (AID 2742).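 Also: GFP tag reports level of MEP2 protein as a downstream target of TOR signalling.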 The following applies: S. cerevisiae MEP2-GFP strain, flow cytometry fluorescence, 3 h; at 33 µM (top of the series).

`Oc1c(Br)cc(Br)cc1C=Nc1ccc2[nH]ncc2c1`: the GFP fluorescence (kMESF), higher = increase is 5.46 kMESF (inactive).

With `COc1ccc(/C=C/C(=O)c2cc(Br)ccc(=O)c2O)cc1`, the GFP fluorescence (kMESF), higher = increase is -51.6 kMESF (inactive).

As to `O/C=c1\ccc2cccc3nc(C(F)(F)F)nc1c23`, the GFP fluorescence (kMESF), higher = increase is 14.3 kMESF (inactive).

Take `CCN1/C(=C/C=C/c2sc3ccccc3[n+]2CC)Sc2ccccc21`: the GFP fluorescence (kMESF), higher = increase was 105 kMESF (inactive).

As to `O=C(COc1ccccc1)NNC(=S)NC(=O)c1ccccc1`, the GFP fluorescence (kMESF), higher = increase is 2.59 kMESF (inactive).

`COc1ccc([N+](=O)[O-])c(S(=O)(=O)c2ccccc2)n1`: the GFP fluorescence (kMESF), higher = increase was 3.41 kMESF (inactive).

For `CC(=O)Oc1oc(-c2ccccc2)nc1C=Nc1ccccc1`, the GFP fluorescence (kMESF), higher = increase is 3.71 kMESF (inactive).

Take `Cc1ccc(S(=O)(=O)Cc2cc(F)c([N+](=O)[O-])cc2[N+](=O)[O-])cc1`: the GFP fluorescence (kMESF), higher = increase is 0.65 kMESF (inactive).

Turning to `COc1cc(N2C(=O)C=CC2=O)c(OC)cc1Cl`, the GFP fluorescence (kMESF), higher = increase is 3.78 kMESF (inactive).

On to `O=C(O)c1ccn2c(C(=O)c3ccccc3)c(-c3ccccc3)cc2c1`, for which the GFP fluorescence (kMESF), higher = increase was 3.13 kMESF (inactive).

In the case of `CCc1nc2ccccc2c(=O)n1NC(=O)c1c(O)c2cccc3c2n(c1=O)CCC3`, the GFP fluorescence (kMESF), higher = increase is 1.72 kMESF (inactive).

Consider `O=C(/C=C/c1cccc([N+](=O)[O-])c1)c1ccc([N+](=O)[O-])o1`, for which the GFP fluorescence (kMESF), higher = increase is 3.51 kMESF (inactive).

`O=C(OCn1ncc(Br)c(Br)c1=O)c1c(F)cccc1F`: the GFP fluorescence (kMESF), higher = increase is 4.49 kMESF (inactive).

Regarding `Cc1ccc(N/N=C(\C#N)C(N)=S)c(C)c1`, the GFP fluorescence (kMESF), higher = increase was 4.52 kMESF (inactive).

For the molecule `COc1ccc(C2=CC(=O)N(Nc3ccccc3)C2=O)cc1`, the GFP fluorescence (kMESF), higher = increase is 6.84 kMESF (inactive).

`O=C(O)c1ccc(COc2ccccc2C=C2C(=O)c3ccccc3C2=O)cc1`: the GFP fluorescence (kMESF), higher = increase is 1.54 kMESF (inactive).

Consider `COc1ccc(N=Cc2nc(-c3ccccc3)oc2OC(C)=O)cc1`, for which the GFP fluorescence (kMESF), higher = increase was 3.51 kMESF (inactive).

Take `NC(=O)COc1ccc(C(=O)/C=C2/C(=O)Nc3ccccc32)cc1`: the GFP fluorescence (kMESF), higher = increase is 3.66 kMESF (inactive).

For the molecule `Cc1ccc(-c2nc(C)sc2CC(=O)Nc2nnc(C)s2)cc1`, the GFP fluorescence (kMESF), higher = increase was 1.85 kMESF (inactive).

With `CCc1sc(C(=O)Nc2nc(-c3ccccn3)cs2)cc1C`, the GFP fluorescence (kMESF), higher = increase was 5.26 kMESF (inactive).

Take `O=C1C=CC(=O)N1c1ccc(OC(F)F)cc1`: the GFP fluorescence (kMESF), higher = increase was 3.81 kMESF (inactive).

Regarding `Cc1ccc(C(=O)O/N=C(\N)Cc2cccs2)c(Cl)c1`, the GFP fluorescence (kMESF), higher = increase is 4.31 kMESF (inactive).

For `O=C(OCn1ncc(Br)c(Br)c1=O)c1ccc(F)cc1`, the GFP fluorescence (kMESF), higher = increase is 5.15 kMESF (inactive).

Regarding `Cc1ccc(S(=O)(=O)ON2C(=O)c3ccccc3C2=O)c(C)c1`, the GFP fluorescence (kMESF), higher = increase was 5.06 kMESF (inactive).

Regarding `O=C1c2cccc3c([N+](=O)[O-])ccc(c23)C(=O)N1c1ccccn1`, the GFP fluorescence (kMESF), higher = increase is 12.2 kMESF (inactive).

Regarding `Nc1nc(N)c2nc(CNc3ccc(C(=O)NC(CCC(=O)O)C(=O)O)cc3)cnc2n1` (centres undefined), the GFP fluorescence (kMESF), higher = increase is 1.62 kMESF (inactive).

On to `CC(=O)NN1C(=O)/C(=C/c2ccc(Br)o2)SC1=S`, for which the GFP fluorescence (kMESF), higher = increase is -0.17 kMESF (inactive).

In the case of `Oc1ccc(N=Nc2ccccc2)o1`, the GFP fluorescence (kMESF), higher = increase is 4.33 kMESF (inactive).

As for `O=C1N(c2ccccc2C(F)(F)F)O[C@@]1(c1ccccc1)C1CCCCC1`, the GFP fluorescence (kMESF), higher = increase is 2.87 kMESF (inactive).

For `Cc1ccc(C(=O)/C=C/C(=O)c2ccc(C)cc2)cc1`, the GFP fluorescence (kMESF), higher = increase was 3.81 kMESF (inactive).

Turning to `O=C(O)C1Sc2[nH]c(=O)sc2C2c3cc(Br)ccc3OC(=O)C12` (centres undefined), the GFP fluorescence (kMESF), higher = increase was 4.8 kMESF (inactive).

Take `CC(C)(C)C(=O)NC(=S)NNC(=O)c1ccc(-c2ccccc2)cc1`: the GFP fluorescence (kMESF), higher = increase was 3.92 kMESF (inactive).

`Cc1ccc(NC(=O)ON=C2CCCC2)cc1`: the GFP fluorescence (kMESF), higher = increase is 3.26 kMESF (inactive).

Regarding `O=C(c1ccc([N+](=O)[O-])o1)N1CCN(c2nc3c(F)cc(F)cc3s2)CC1`, the GFP fluorescence (kMESF), higher = increase is -3.51 kMESF (inactive).

`CC(Oc1cc2oc(=O)c3c(c2cc1Cl)CCC3)C(=O)NCCN1CCOCC1` (centres undefined): the GFP fluorescence (kMESF), higher = increase is 2.37 kMESF (inactive).

As to `Cc1ccccc1OCC(=O)NNC(=S)NC(=O)c1ccco1`, the GFP fluorescence (kMESF), higher = increase is 5.41 kMESF (inactive).

Take `[O-][n+]1cccc2c(Br)cc(Br)c(O)c21`: the GFP fluorescence (kMESF), higher = increase is 5.76 kMESF (inactive).

In the case of `Cc1ccsc1/C=N/Nc1ncc(Cl)cc1Cl`, the GFP fluorescence (kMESF), higher = increase was 5.19 kMESF (inactive).

As for `CCOC(=O)c1ccc(N=Cc2nc(-c3ccccc3)oc2OC(C)=O)cc1`, the GFP fluorescence (kMESF), higher = increase is 5.65 kMESF (inactive).

On to `C/C(=N\NC(=O)c1cccc(Br)c1)c1ccccn1`, for which the GFP fluorescence (kMESF), higher = increase is 4.33 kMESF (inactive).

On to `Oc1c(CN2CCN(c3ccc(F)cc3)CC2)cc(Cl)c2cccnc12`, for which the GFP fluorescence (kMESF), higher = increase is 10.7 kMESF (inactive).

As to `C/C(=N\NC(=O)c1cc2ccccc2cc1O)c1ccccn1`, the GFP fluorescence (kMESF), higher = increase was 3.61 kMESF (inactive).

For the molecule `C[C@@H]1C[C@@H]([C@H](O)CC2CC(=O)NC(=O)C2)C(=O)[C@@H](C)C1`, the GFP fluorescence (kMESF), higher = increase was 3.27 kMESF (inactive).

As to `O=C(NNC(=S)NC(=O)C12CC3CC(CC(C3)C1)C2)c1ccncc1`, the GFP fluorescence (kMESF), higher = increase was 6.72 kMESF (inactive).

Take `Cc1ccc(C(=O)NNC(=S)NC(=O)COc2ccccc2)cc1`: the GFP fluorescence (kMESF), higher = increase is 6.29 kMESF (inactive).

With `Oc1c(CN2CCCCC2)cc(Br)c2cccnc12`, the GFP fluorescence (kMESF), higher = increase is 5.16 kMESF (inactive).

With `Cc1cc(C)c(S(=O)(=O)ON2C(=O)c3ccccc3C2=O)cc1C`, the GFP fluorescence (kMESF), higher = increase was 3.17 kMESF (inactive).

Consider `COc1ccccc1NC1=C(Cl)C(=O)N(c2ccccc2)C1=O`, for which the GFP fluorescence (kMESF), higher = increase was 2.07 kMESF (inactive).

In the case of `Cc1cc(O)c(C(=O)/C=C/c2c(F)c(F)c(F)c(F)c2F)c(=O)o1`, the GFP fluorescence (kMESF), higher = increase is 0.99 kMESF (inactive).

As to `Cc1ccc2[nH]c(C)c(/C=C/c3cc[n+](C)cc3)c2c1`, the GFP fluorescence (kMESF), higher = increase is 4.54 kMESF (inactive).

For the molecule `CCOc1ccc(N2C(=O)C(Cl)=C(Nc3ccccc3O)C2=O)cc1`, the GFP fluorescence (kMESF), higher = increase is 4.31 kMESF (inactive).

Regarding `O=C1Oc2ccccc2C(=O)/C1=C/c1ccccc1O`, the GFP fluorescence (kMESF), higher = increase was 5.39 kMESF (inactive).

Consider `C#CCOCCOCCOCCNc1nc(N2CCN(C(=O)CCCCCCCCCCNC(=O)[C@H](CCCCN)n3cc(CCCC(=O)O)nn3)CC2)nc(N2CCN(C(=O)CCCCCCCCCCNC(=O)[C@H](CCCN=C(N)N)n3cc(C[C@@H](C)CC)nn3)CC2)n1`, for which the GFP fluorescence (kMESF), higher = increase was 3.78 kMESF (inactive).

For the molecule `CC1(c2ccccc2)ON(c2ccccc2C(F)(F)F)C1=O` (centres undefined), the GFP fluorescence (kMESF), higher = increase is 4.18 kMESF (inactive).
